Source: patent US20230346827A1 (priority 2020, published 2023)
Marks after values point to notes of the source that are not given here.

Legend:
[1] = tested on: Mouse cortical neurons; assay: Gene expression array and pathway analysis, cortical neurons, LMW-DS 0.01 mg/ml 48 h; format: cell-based; settings: for number of genes: abolished nutrient effect / number of genes: new effect induced by LMW-DS / number of genes: total / number of genes: enhanced response to nutrients / number of genes: not different from control: cortical neurons
Method: For each cell line, n=8 × 25 cm^2 culture flasks were set up. Two flasks were harvested for each cell type on the day of treatment (24 hours after seeding). This represents the Day0 time point. From the remaining flasks, three flasks were treated with Control Medium and three were treated with Culture Medium (CM) containing LMW-DS to give a final concentration of 0.01 mg/ml. Cells from the treated flasks were collected after 48 hours. Therefore the collected data represent (a) untreated cells (Day0 Controls and Day2 Controls) and (b) cells treated with LMW-DS (ILB®, Tikomed AB, Viken, Sweden, WO 2016/076780) for 48 hours (Day2 LMW-DS treated).
Medium was prepared by adding 10 ml B-27 Serum-Free Supplement and 2.5 ml GlutaMAX™-1 Supplement to 500 ml of Neurobasal medium. The medium was pre-warmed to 37° C. Cells from 12 vials were thawed sequentially in a 37° C. water bath for no longer than 2 min and gently transferred into a 15 ml tube. 9 ml of medium was gently added drop-wise to each. The cell suspension was mixed by inverting the tubes carefully twice.
The cells were centrifuged for 5 minutes at 200 x g. Supernatant was removed (to the last 0.5 ml) and cells were gently re-suspended by trituration. The cells from the 12 vials were mixed and distributed equally into the previously coated 25 cm^2 flasks (n=8). Cells were incubated at 37° C. with 5% CO2 for 24 hours.
LMW-DS was provided at a stock concentration of 20 mg/ml and was kept in a temperature monitored refrigerator at 4° C. A fresh 100x LMW-DS stock (1.0 mg/ml) was prepared in sterile DMEM-F12. The concentrated drug stock was sterile filtered and added to the respective culture media (19.6 ml CM and 0.4 ml LMW-DS stock solution). The Control was made using 19.6 ml CM and 0.4 ml of DMEM-F12. LMW-DS and CM were added to the respective flasks (5 ml each) to reach the 0.01 mg/ml concentration of LMW-DS in each dish with a total of 10 ml CM each.
CM was aspirated into a clean and labelled 15 ml Falcon tube. The flasks (without culture medium) were placed into the -80° C. freezer for 30 minutes. The CM in the Falcon tubes was spun at 3000 x g for 5 minutes. Supernatant was removed and the small pellet was re-suspended in 2.5 ml Trizol:Water (4:1) solution at room temperature (RT, ~22° C.).
Two aliquots of 1 ml lysate were removed from each sample and 200 µl of chloroform was added to each (0.2 ml of chloroform per 1 ml of TRIzol Reagent used during the cell lysis step) and the tube was shaken vigorously. Samples were stored at RT for 2-3 minutes and subsequently centrifuged at 12,000 x g for 15 minutes at 4° C.
The RNA was precipitated from the aqueous phase by adding an equal amount of 100% ethanol. The precipitated RNA was fixed onto a Spin Cartridge, washed twice and dried. The RNA was eluted in 50 µl warm RNase-Free Water. The amount and quality of the purified RNA was measured by Nanodrop. The RNA was stored at -80° C. before transfer to Source Bioscience for Array analysis.
The expression data were downloaded into separate files for each cell line. The ‘Background corrected’ expression is the data from the “gProcessedSignal” of the arrays that is the result of the background signal extracted from the actual signal of the relevant probe. This is the most often used variable in array analysis. The background corrected signal was log2 transformed for all samples for statistical analysis. To reduce the false discovery rate in the samples, the signals that were below ‘expression level’ were removed. The ‘below expression’ level was set at 5 for the log2 transformed expression values.
Based on the expression pattern of the Control probes on each array it was decided to carry out Median Centering for all arrays before analysis to reduce the variability of the results. […]

[2] = tested on: rats subjected to sTBI; assay: sTBI rats, LMW-DS 15 mg/kg s.c.: HPLC of brain free amino acids (Example 3); format: in vivo, rat
[3] = pathway analysis of gene expression
[4] = Acute phase 1: drug 30 min, sacrifice 2 d post-TBI
[5] = Acute phase 2: drug 30 min, sacrifice 7 d post-TBI
[6] = Chronic phase: drug 3 d, sacrifice 7 d post-TBI

For sodium salt of dextran sulfate [LMW-DS], the “number of differentially expressed genes” value ([1]; D0 control to D2 LMW-DS treated) was 609, the “number of differentially expressed genes” value ([1]; D0 control to D2 LMW-DS treated (second statement)) was 247 and the “number of genes: abolished nutrient effect” value ([1]; no effect) was 572. The “number of genes: new effect induced by LMW-DS” value (“number of genes … by LMW-DS” for short) ([1]; no effect) was 19, the “number of genes: total” value ([1]; no effect) was 591 and the “number of genes: abolished nutrient effect” value ([1]; significant downregulation) was 7. The “number of genes: enhanced response to nutrients” value (“number of genes … to nutrients” for short) ([1]; significant downregulation) was 158, the “number of genes … by LMW-DS” value ([1]; significant downregulation) was 22 and the “number of genes: not different from control” value (“number of genes: not different” for short) ([1]; significant downregulation) was 95. The “number of genes: total” value ([1]; significant downregulation) was 282, the “number of genes: abolished nutrient effect” value ([1]; significant upregulation) was 33 and the “number of genes … to nutrients” value ([1]; significant upregulation) was 43. For the same substance, the “number of genes … by LMW-DS” value ([1]; significant upregulation) was 7, the “number of genes: not different” value ([1]; significant upregulation) was 221 and the “number of genes: total” value ([1]; significant upregulation) was 304. The “number of genes: abolished nutrient effect” value ([1]; total) was 612, the “number of genes … to nutrients” value ([1]; total) was 612 and the “number of genes … by LMW-DS” value ([1]; total) was 48. The “number of genes: not different” value ([1]; total) was 316, the “number of genes: total” value ([1]; total) was 1177 and the “deleterious effects of oxidative stress (amyloid-β and Lewy body pathology, mitochondrial dysfunction)” value [1, 3] was “prevent and reverse”. The glutamate production [1, 3] was “did not alter”, the ALA [2, 4] was 0.50±0.12^a µmol/g (w.w.) and the ARG [2, 4] was 0.13±0.02^b,d µmol/g (w.w.). The ASN [2, 4] was 0.12±0.02^i µmol/g (w.w.), the ASP [2, 4] was 2.40±0.56^d,i µmol/g (w.w.) and the CITR [2, 4] was 0.018 ± 0.004 µmol/g (w.w.). The GABA [2, 4] was 1.43±0.25^a µmol/g (w.w.), the GLN [2, 4] was 4.78±1.09^a µmol/g (w.w.) and the GLU [2, 4] was 9.81±1.66^i µmol/g (w.w.). For the same substance, the GLY [2, 4] was 0.83±0.25^a,c µmol/g (w.w.), the HIS [2, 4] was 0.068±0.015^b µmol/g (w.w.) and the L-Cystat [2, 4] was 0.185±0.031^b,c,i µmol/g (w.w.). The MET [2, 4] was 0.016±0.005^d,j µmol/g (w.w.), the SAH [2, 4] was 0.033±0.008^b,c,j µmol/g (w.w.) and the SER [2, 4] was 0.88±0.25^a µmol/g (w.w.). The TAU [2, 4] was 4.86±00.85^b µmol/g (w.w.), the THR [2, 4] was 0.92±0.29^a µmol/g (w.w.) and the TYR [2, 4] was 0.15 ± 0.03 µmol/g (w.w.). For the same substance, the VAL [2, 4] was 0.042 ± 0.011 µmol/g (w.w.), the ALA [2, 5] was 0.52±0.24^a,e µmol/g (w.w.) and the ARG [2, 5] was 0.16 ± 0.03 µmol/g (w.w.). For the same substance, the ASN [2, 5] was 0.13±0.03^i µmol/g (w.w.), the ASP [2, 5] was 2.94±0.98^f,j µmol/g (w.w.) and the CITR [2, 5] was 0.018 ± 0.008 µmol/g (w.w.). For the same substance, the GABA [2, 5] was 1.60±0.24^a µmol/g (w.w.), the GLN [2, 5] was 3.66 ± 0.41 µmol/g (w.w.) and the GLU [2, 5] was 9.93±1.56^e,i µmol/g (w.w.). For the same substance, the GLY [2, 5] was 0.71±0.16^f,i µmol/g (w.w.), the HIS [2, 5] was 0.055 ± 0.019 µmol/g (w.w.) and the L-Cystat [2, 5] was 0.173±0.038^b,f,i µmol/g (w.w.). The MET [2, 5] was 0.022±0.006^b,e,i µmol/g (w.w.), the SAH [2, 5] was 0.026±0.010^f,i µmol/g (w.w.) and the SER [2, 5] was 0.71±0.28^b µmol/g (w.w.). The TAU [2, 5] was 3.80 ± 1.19 µmol/g (w.w.), the THR [2, 5] was 0.66 ± 0.23 µmol/g (w.w.) and the TYR [2, 5] was 0.172±0.046^b,f µmol/g (w.w.). For the same substance, the VAL [2, 5] was 0.057 ± 0.017 µmol/g (w.w.), the ALA [2, 6] was 0.57±0.28^a,e µmol/g (w.w.) and the ARG [2, 6] was 0.14 ± 0.02 µmol/g (w.w.). For the same substance, the ASN [2, 6] was 0.18±0.02^a µmol/g (w.w.), the ASP [2, 6] was 4.46±0.70^a,f µmol/g (w.w.) and the CITR [2, 6] was 0.020 ± 0.006 µmol/g (w.w.). For the same substance, the GABA [2, 6] was 1.85±0.65^a µmol/g (w.w.), the GLN [2, 6] was 3.98 ± 0.34 µmol/g (w.w.) and the GLU [2, 6] was 13.58±1.28^a µmol/g (w.w.). For the same substance, the GLY [2, 6] was 1.05±0.13^a,f µmol/g (w.w.), the HIS [2, 6] was 0.047 ± 0.021 µmol/g (w.w.) and the L-Cystat [2, 6] was 0.26±0.05^a,f µmol/g (w.w.). The MET [2, 6] was 0.009±0.004^b µmol/g (w.w.), the SAH [2, 6] was 0.050±0.013^a µmol/g (w.w.) and the SER [2, 6] was 0.93±0.27^a,e µmol/g (w.w.). For the same substance, the TAU [2, 6] was 4.49±0.43^a µmol/g (w.w.), the THR [2, 6] was 0.75±0.24^a,e µmol/g (w.w.) and the TYR [2, 6] was 0.21±0.05^f µmol/g (w.w.). The VAL [2, 6] was 0.040±0.016^b µmol/g (w.w.), the glutamate excitotoxicity marker ([2]; LMW-DS injected at 3 days after sTBI) was “no efficacy” and the “increase in glutamate (GLU) induced by sTBI” value ([2]; drug administered early post-injury (30 min following sTBI)) was “remarkable inhibition”.
